Residues, ends and D or L forms follow the SMILES beside them. *: point of attachment. Cbz = O=C(OCc1ccccc1)*; CH2F = FC*
Legend:
[1] = test system: pS6 (S240/244) in MAPKi-S cells; experiment: Phosphorylation of S6K/S6 in MAPKi-S cells (immunoblotting, RPPA, flow cytometry); assay type: cell-based, human
Procedure: (§1) Cells were lysed with RIPA buffer (50 mM Tris-HCl, pH 7.4, 150 mM NaCl, 1% NP-40, 0.5% sodium deoxycholate, 1 mM EDTA, 2.5 mM sodium pyrophosphate, 0.05% or 0.1% SDS) supplemented with sodium vanadate (0.2 mM) and protease inhibitor cocktail (Sigma-Aldrich #11697498001). Immunoblotting was performed as previously described (Echevarria-Vargas et al., 2018). Immunoblots were imaged with an Odyssey Infrared Imaging System (LI-COR Biosciences).
(§2) Flow cytometry. Cells were fixed in 90% ice cold EtOH/PBS and stored at −20° C. Cells were washed twice with PBS followed by 1 h incubation at RT with incubation buffer (1% BSA/PBS) containing primary antibodies (1:500 pS6 S240/244 Cell Signaling Technology #5364; 1:1000 HA Sigma-Aldrich #H9658). Samples were washed once (1×PBS), incubated for 30 min at RT with incubation buffer containing secondary antibodies diluted to 1:500 (goat anti-mouse Alexa Fluor 488 ThermoFisher #A11029; goat anti-rabbit Alexa Fluor 647 #A21244), washed (1×PBS) and resuspended in incubation buffer for analysis by flow cytometry (BD LSRII 14-color flow cytometer analyser; Alexa Fluor 488 and APC filter sets). Data analyses were performed using FlowJo software to calculate pS6 positivity. For 4-HNE staining, cells were fixed with 4% paraformaldehyde for 15 min, washed with PBS and stored at 4° C. […]

[2] = test system: pS6 (S240/244) in MAPKi-R cells; experiment: Phosphorylation of S6K/S6 in MAPKi-R cells (immunoblotting, RPPA, flow cytometry); assay type: cell-based, human
Procedure: as §1, §2

[3] = test system: MAPKi-R NRAS-mutant melanoma cells; assay type: cell-based; details: for effect on FNB/DHA-induced cell death: M93-047, GSH 2 mM, zVAD 20 μM, Kira6 0.2 μM pre-treatment; for effect on cell death induced by S6K2 depletion (S6K2 shRNA): M93-047 cells transduced with S6K2 shRNA; for effect on S6K2i (CD02)-induced cell death: MAPKi-R cells treated with CD02
Procedure: Floating and attached cells were harvested, washed and stained with PSVue 643/PI or Annexin V-FITC/PI. Annexin V staining was performed as described previously (45), with 15 min Annexin V incubation. For PSVue/PI staining, cells were incubated in 3 μM PSVue 643/TES for 10 min at RT, washed in TES buffer and resuspended in PI (5 μg/mL)/TES for 15 min at RT. Cell death (Annexin V^+/PSVue^+ or PI^+) was quantified by FACS (LSRII 18 color analyzer, BD Biosciences) and analyzed using FlowJo software v.10.7.2.

[4] = test system: M93047 and WM3623 cell lines; experiment: Preliminary in vitro studies against MAPKi-R cell lines; assay type: cell-based, human; details: at lower concentrations
[5] = test system: spliced XBP-1 and PPARα in M93-047 cells; experiment: Spliced XBP-1 and PPARα levels by qRT-PCR / Western blotting; assay type: cell-based, human
Procedure: as §1
Cell pellets were homogenized using QIAshredder (QIagen #79656) and RNA extracted with PureLink RNA mini kit (Thermo Fisher Scientific, #12183018A). DNA was removed by on-column PureLink DNase treatment (Thermo Fisher Scientific, #12185010). First-strand cDNA was synthesized using Maxima cDNA kit (Thermo Scientific™ #K1642). Real time qPCR was performed using SYBR green PCR Master Mix (Applied Biosystems #4385612). Tumor samples for qRT-PCR were preserved in RNAlater solution (Invitrogen #AM7020).

Compound | effect on FNB/DHA-induced cell death [3] | effect on cell death induced by S6K2 depletion (S6K2 shRNA) [3] | effect on S6K2i (CD02)-induced cell death [3] | other results
O=C(Nc1ccc2[nH]nc(-c3ccncc3)c2c1)[C@@H]1CCN(CC(=O)N2CCN(c3ccc(-c4ncccn4)cc3)CC2)C1 [SCH984, SCH772984] | – | – | – | phosphorylation of S6K / S6 [1]: decreased phosphorylation of S6; phosphorylation of S6K / S6 [2]: no effect on phosphorylation of S6
COC(=O)C[C@H](NC(=O)[C@H](C)NC(=O)[C@@H](NC(=O)OCc1ccccc1)C(C)C)C(=O)CF [zVAD, zVAD(OMe)-FMK] (Cbz-Val-Ala-Asp(OMe)-CH2F) | attenuated FNB/DHA-induced cell death | also attenuated cell death | attenuate S6K2i-induced cell death | –
O=C(CCl)Nc1ccc(-c2cc(O)cc3sc(=O)oc23)cc1 [MM-113] | – | – | – | potency compared with RT12 [4]: better potency at lower concentrations
Cn1cc(-c2ccc(F)c(C(F)(F)F)c2)nc1C1CCN(c2ncnc3[nH]ncc23)CC1 [LY2584702] | – | – | – | cytotoxicity with ectopically expressed activated S6K1 ([3]; M93-047 with S6K1^T389E, 1, 5, 10 μM, 48 hours): enhanced LY4702 cytotoxicity
N[C@@H](CCC(=O)N[C@@H](CS)C(=O)NCC(=O)O)C(=O)O [GSH, glutathione] | attenuated FNB/DHA-induced cell death | also attenuated cell death | attenuate S6K2i-induced cell death | –
COc1ncc(-c2ccc3nccc(-c4ccnnc4)c3c2)cc1NS(=O)(=O)c1ccc(F)cc1F [GSK458, GSK2126458] | – | – | – | phosphorylation of S6K / S6 [1]: decreased phosphorylation of S6; phosphorylation of S6K / S6 [2]: effectively suppressed pS6
CC(C)(C)c1nc(-c2ccc(NC(=O)Nc3cccc(C(F)(F)F)c3)c3ccccc23)c2c(N)nccn12 [Kira6] | attenuated FNB/DHA-induced cell death | partially attenuated cell death | attenuate S6K2i-induced cell death | upregulation of XBP-1 splicing and PPARα expression caused by S6K2 knockdown ([5]; M93-047, S6K2 shRNA): suppressed; activation of XBP-1 by FNB/DHA ([5]; cotreatment with 0.2 μM Kira6): suppressed the activation of XBP-1
CCOC(=O)c1ccc(NC2CCCCC2)c(N)c1 [ferrostatin-1] | – | did not attenuate cell death | – | –
CC(=O)N[C@@H](CS)C(=O)O [NAC] | – | protects M93047 cells from S6K2sh induced cell death | rescues S6K2i-induced cell death | –

Source: patent US20260263417A1, “STRUCTURE-BASED OPTIMIZATION OF S6K2 INHIBITOR CD02 TO TARGET MELANOMA” (THE WISTAR INSTITUTE OF ANATOMY AND BIOLOGY, priority 2023, published 2026)
